Inhibition in vivo and IC50 data for 20 molecules are collected here from patent US20120196824A1, “THERAPEUTIC AGENT FOR CEREBRAL INFARCTION” (MITSUBISHI TANABE PHARMA CORPORATION, priority 2009, published 2012).

Molecules are shown by their SMILES. Structures can show the parent of a compound that is named as a salt.

In general, IC50 refers to the concentration that gives 50% inhibition.

T1 sequence (P23526 whole entry): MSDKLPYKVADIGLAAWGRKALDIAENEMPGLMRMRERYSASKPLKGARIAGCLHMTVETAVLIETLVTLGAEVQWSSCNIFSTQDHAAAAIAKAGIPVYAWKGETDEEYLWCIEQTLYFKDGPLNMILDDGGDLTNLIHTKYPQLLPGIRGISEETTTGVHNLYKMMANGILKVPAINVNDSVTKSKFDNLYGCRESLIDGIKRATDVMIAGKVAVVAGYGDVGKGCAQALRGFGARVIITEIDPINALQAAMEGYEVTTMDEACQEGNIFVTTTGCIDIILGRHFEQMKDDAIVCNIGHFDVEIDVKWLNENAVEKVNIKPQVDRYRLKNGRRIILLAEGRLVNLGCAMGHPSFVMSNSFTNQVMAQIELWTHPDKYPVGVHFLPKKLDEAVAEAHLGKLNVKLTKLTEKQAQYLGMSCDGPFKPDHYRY

One assay concerns homocysteine synthesis. The experiment in a line: Measurement of homocysteine synthesis inhibitory activity in vivo (methionine-loaded mouse, plasma homocysteine). The note with it: dose of 10 mg/kg, oral, BALB/c mouse; methionine water 1 hr later; plasma 30 min after; read-out: activity (homocysteine synthesis inhibitory rate). The procedure:
A sample was orally administered to BALB/c mouse and, 1 hr later, methionine water (50 g/L) was orally administered at a proportion of 10 ml/kg. 30 min later, blood samples were collected with heparin from the abdominal vein and plasma was obtained. The plasma homocysteine concentration was measured by treating the plasma with tributylphosphine, removing protein with 10% trichloroacetic acid (TCA), fluorescent labeling the supernatant with 4-fluoro-7-sulfobenzofurazan ammonium salt (SBD-F) under alkali conditions, and quantifying by HPLC. The homocysteine synthesis inhibitory rate of the sample was determined with the difference in the homocysteine value between methionine water-loaded animal and methionine water-unloaded animal as 100%. The detailed conditions of HPLC were as follows.
column used: Wakopak^R HandyODS 150*4.6 mm (Wako Pure Chemical Industries, Ltd.) elution condition: 1.0 ml/min elution solvent: 0.1M phosphate buffer (pH 6.0) 2% methanol wavelength: ex 385 nm em 515 nm
As for `CCNCCNC(=O)CN(CC(=O)N(C)N1Cc2ccccc2C1)c1cc(C(C)=O)ccc1C` [57 (2HCl salt)], the inhibition in vivo at 10 mg/kg is at least 40%.

Regarding `Cc1nnc(-c2ccc(C)c(N(CC(=O)NCCNC(C)C)CC(=O)N(C)N3Cc4ccccc4C3)c2)s1` [Example 105, N^2-{2-[1,3-dihydro-2H-isoindol-2-yl(methyl)amino]-2-oxoethyl}-N^2-[2-methyl-5-(5-methyl-1,3,4-thiadiazol-2-yl)phenyl]-N^1-[2-(isopropylamino)ethyl]glycinamide dihydrochloride], the inhibition in vivo at 10 mg/kg was 20 to 40%.

On to `CCNCCNC(=O)CN(CC(=O)N(C)N1Cc2ccccc2C1)c1ccc(-c2cnn(C)c2)cc1C` [Example 136, N^2-{2-[1,3-dihydro-2H-isoindol-2-yl(methyl)amino]-2-oxoethyl}-N^2-[2-methyl-4-(1-methyl-1H-pyrazol-4-yl)phenyl]-N^1-[2-(ethylamino)ethyl]glycinamide trihydrochloride], for which the inhibition in vivo at 10 mg/kg was at least 40%.

Turning to `CCNCCNC(=O)CN(CC(=O)N(C)N1Cc2ccc(F)cc2C1)c1cc2cn(C)nc2cc1C` [Example 245, N^2-(2,6-dimethyl-2H-indazol-5-yl)-N^2-{2-[(5-fluoro-1,3-dihydro-2H-isoindol-2-yl)(methyl)amino]-2-oxoethyl}-N^1-[2-(ethylamino)ethyl]glycinamide hydrochloride], the inhibition in vivo at 10 mg/kg was 20 to 40%.

For the molecule `CCNCCNC(=O)CN(CC(=O)N(C)N1Cc2ccc(F)cc2C1)c1cc2cn(CC(F)F)nc2cc1C` [Example 254, N^2-[2-(2,2-difluoroethyl)-6-methyl-2H-indazol-5-yl]-N^2-{2-[(5-fluoro-1,3-dihydro-2H-isoindol-2-yl)(methyl)amino]-2-oxoethyl}-N^1-[2-(ethylamino)ethyl]glycinamide hydrochloride], the inhibition in vivo at 10 mg/kg fell in the range of 20 to 40%.

A further assay concerns the target T1, Human-recombinant-S-Adenosyl-L-Homocysteine Hydrolase (Homo sapiens, UniProt P23526).
T1 construct: purchased Diazyme Laboratories
The assay is described as follows: Measurement of enzyme inhibitory activity (hydrolysis of S-Adenosyl-L-Homocysteine, HPLC). It is filed as biochemical. As to conditions: S-Adenosyl-L-Homocysteine 10 μM, pH 7.2, 37° C., 15 min. As to the method: The enzyme inhibitory activity of the compounds of the Examples was measured using the hydrolysis activity of S-Adenosyl-L-Homocysteine as an index. The measurement method was modification of the method of Henry H. Richards et al. (J. Biol. Chem. 253, 4476-4480, 1978). That is, S-Adenosyl-L-Homocysteine (10 μM) and Adenosine Deaminase (Roche) (4 units) were added to 50 mM phosphate buffer (pH 7.2, containing 1 mM EDTA) with the total amount being 200 μl, and to the solution were added a test substance and then Human-recombinant-S-Adenosyl-L-Homocysteine Hydrolase (50 ng, Diazyme Laboratories) to start the reaction, and the mixture was incubated at 37° C. for 15 min. The reaction was quenched by the addition of 1N aqueous perchloric solution (20 μl), and the mixture was centrifuged under the conditions of 10000 rpm, 5 min, 4° C. The supernatant was collected, and the amount of S-Adenosyl-L-Homocysteine after the reaction was quantified by HPLC. The column used was a reversed-phase column. The detailed conditions of HPLC were as follows.
column used: Wakopak^R HandyODS 150*4.6 mm (Wako Pure Chemical Industries, Ltd.) elution condition: 1.0 ml/min elution solvent: 0.1M acetate buffer (pH 4.0) containing 10 mM 1-heptanesulfonic acid containing 4% acetonitrile wavelength: 258 nm (UV) The inhibitory rate was determined with the amount of decrease in S-Adenosyl-L-Homocysteine before and after the reaction without using the test substance as 100%.
Inhibitory rate (%)={(amount of decrease of S-Adenosyl-L-Homocysteine in the presence of test substance)/(amount of decrease of S-Adenosyl-L-Homocysteine in the absence of test substance)}×100
With `Cc1cc2c(cnn2C)cc1N(CC(=O)NCCNC(C)C)CC(=O)N(C)N1Cc2ccccc2C1` [Example 242, N^2-{2-[1,3-dihydro-2H-isoindol-2-yl(methyl)amino]-2-oxoethyl}-N^2-(1,6-dimethyl-1H-indazol-5-yl)-N^1-[2-(isopropylamino)ethyl]glycinamide hydrochloride], the IC50 came to 6 nM.

As for `CCNCCNC(=O)CN(CC(=O)N(C)N1Cc2ccccc2C1)c1cc2cn(C)nc2cc1C` [Example 243, N^2-{2-[1,3-dihydro-2H-isoindol-2-yl(methyl)amino]-2-oxoethyl}-N^2-(2,6-dimethyl-2H-indazol-5-yl)-N^1-[2-(ethylamino)ethyl]glycinamide hydrochloride], the 50% inhibitory concentration (IC50) is 7 nM.

Take `CCNCCNC(=O)CN(CC(=O)N(C)N1Cc2ccccc2C1)c1cc2cn(CC)nc2cc1C` [Example 247, N^2-{2-[1,3-dihydro-2H-isoindol-2-yl(methyl)amino]-2-oxoethyl}-N^2-(2-ethyl-6-methyl-2H-indazol-5-yl)-N^1-[2-(ethylamino)ethyl]glycinamide hydrochloride]: the IC50 stood at 15 nM.

For the molecule `CCNCCNC(=O)CN(CC(=O)N(C)N1Cc2ccc(F)cc2C1)c1cc2c(C)nn(C)c2cc1C` [Example 256, N^2-{2-[(5-fluoro-1,3-dihydro-2H-isoindol-2-yl)(methyl)amino]-2-oxoethyl}-N^2-(1,3,6-trimethyl-1H-indazol-5-yl)-N^1-[2-(ethylamino)ethyl]glycinamide hydrochloride], the IC50 was 47 nM.

Consider `CCNCCNC(=O)CN(CC(=O)N(C)N1Cc2ccc(F)cc2C1)c1cc2c(cnn2C)cc1C` [Example 259, N^2-(1,5-dimethyl-1H-indazol-6-yl)-N^2-{2-[(5-fluoro-1,3-dihydro-2H-isoindol-2-yl)(methyl)amino]-2-oxoethyl}-N^1-[2-(ethylamino)ethyl]glycinamide hydrochloride], for which the 50% inhibitory concentration (IC50) was found to be 30 nM.

Regarding `CCNCCNC(=O)CN(CC(=O)N(C)N1Cc2ccc(F)cc2C1)c1cc2c(cc1C)c(CC)nn2CC(F)F` [Example 279, N^2-[1-(2,2-difluoroethyl)-3-ethyl-5-methyl-1H-indazol-6-yl]-N^2-{2-[(5-fluoro-1,3-dihydro-2H-isoindol-2-yl)(methyl)amino]-2-oxoethyl}-N^1-[2-(ethylamino)ethyl]glycinamide hydrochloride], the IC50 was found to be 66 nM.

Regarding `CCNCCNC(=O)CN(CC(=O)N(C)N1Cc2ccccc2C1)c1cc2c(cc1C)CN(CC)C2=O` [Example 284, N^2-{2-[1,3-dihydro-2H-isoindol-2-yl(methyl)amino]-2-oxoethyl}-N^2-(2-ethyl-6-methyl-3-oxo-2,3-dihydro-1H-isoindol-5-yl)-N^1-[2-(ethylamino)ethyl]glycinamide dihydrochloride], the IC50 came to 33 nM.

For the molecule `CCNCCNC(=O)CN(CC(=O)N(C)N1Cc2ccccc2C1)c1cc(-c2noc(C(F)(F)F)n2)ccc1C` [Example 287, N^2-{2-[1,3-dihydro-2H-isoindol-2-yl(methyl)amino]-2-oxoethyl}-N^2-{2-methyl-5-[5-(trifluoromethyl)-1,2,4-oxadiazol-3-yl]phenyl}-N^1-[2-(ethylamino)ethyl]glycinamide dihydrochloride], the IC50 is 58 nM.

For the molecule `CCNCCNC(=O)CN(CC(=O)N(C)N1Cc2ccccc2C1)c1ccc(-c2noc(C(F)(F)F)n2)cc1C` [Example 289, N^2-{2-[1,3-dihydro-2H-isoindol-2-yl(methyl)amino]-2-oxoethyl}-N^2-{2-methyl-4-[5-(trifluoromethyl)-1,2,4-oxadiazol-3-yl]phenyl}-N^1-[2-(ethylamino)ethyl]glycinamide dihydrochloride], the IC50 turned out to be 76 nM.

On to `CCNCCNC(=O)CN(CC(=O)N(C)N1Cc2ccccc2C1)c1ccc(N2CCCC2=O)cc1C` [Example 298, N^2-{2-[1,3-dihydro-2H-isoindol-2-yl(methyl)amino]-2-oxoethyl}-N^2-[2-methyl-4-(2-oxopyrrolidin-1-yl)phenyl]-N^1-[2-(ethylamino)ethyl]glycinamide dihydrochloride], for which the IC50 worked out at 50 nM.

For `CCNCCNC(=O)CN(CC(=O)N(C)N1Cc2ccccc2C1)c1ccc(-c2ccc(C(N)=O)cn2)cc1C` [Example 301, N^2-{4-[5-(aminocarbonyl)pyridin-2-yl]-2-methylphenyl}-N^2-{2-[1,3-dihydro-2H-isoindol-2-yl(methyl)amino]-2-oxoethyl}-N^1-[2-(ethylamino)ethyl]glycinamide dihydrochloride], the IC50 came to 37 nM.

As to `CCNCCNC(=O)CN(CC(=O)N(C)N1Cc2ccccc2C1)c1ccc(-n2cc(C(N)=O)cn2)cc1C` [Example 303, N^2-{4-[4-(aminocarbonyl)-1H-pyrazol-1-yl]-2-methylphenyl}-N^2-{2-[1,3-dihydro-2H-isoindol-2-yl(methyl)amino]-2-oxoethyl}-N^1-[2-(ethylamino)ethyl]glycinamide dihydrochloride], the IC50 came out at 41 nM.

Turning to `CCNCCNC(=O)CN(CC(=O)N(C)N1Cc2ccc(F)cc2C1)c1ccc(-c2nc(C(N)=O)cs2)cc1C` [Example 308, N^2-{4-[4-(aminocarbonyl)-1,3-thiazol-2-yl]-2-methylphenyl}-N^2-{2-[(5-fluoro-1,3-dihydro-2H-isoindol-2-yl)(methyl)amino]-2-oxoethyl}-N^1-[2-(ethylamino)ethyl]glycinamide dihydrochloride], the IC50 worked out at 26 nM.

`CCNCCNC(=O)CN(CC(=O)N(C)N1Cc2ccccc2C1)c1ccc(-c2nc(C(N)=O)co2)cc1C` [Example 309, N^2-{4-[4-(aminocarbonyl)-1,3-oxazol-2-yl]-2-methylphenyl}-N^2-{2-[1,3-dihydro-2H-isoindol-2-yl(methyl)amino]-2-oxoethyl}-N^1-[2-(ethylamino)ethyl]glycinamide dihydrochloride]: the IC50 turned out to be 23 nM.

Regarding `Cc1cc2onc(C)c2cc1N(CC(=O)NC[C@@H]1CCCN1)CC(=O)N(C)N1Cc2ccccc2C1` [Example 328, N^2-{2-[1,3-dihydro-2H-isoindol-2-yl(methyl)amino]-2-oxoethyl}-N^2-(3,6-dimethyl-1,2-benzisoxazol-5-yl)-N^1-[(2S)-pyrrolidin-2-ylmethyl]glycinamide dihydrochloride], the IC50 came to 150 nM.
